# What was measured:
# [1] = solvent water; shorter-wavelength local maximum; cited from earlier work
# [2] = test system: X- and Y-chromosome bearing bovine sperm stained with Hoechst 33342; assay: Split quality: height of peak divided by height of valley (PV), flow cytometry of stained bovine sperm; assay type: cell-based; details: for Height of Peak/Height of Valley: Ex 5; for Height of Peak Divided by Height of Valley: Ex 7, Yellow 6 62 μM, Phenol Red 0 μM
# [3] = test system: membrane compromised bovine sperm stained with Hoechst 33342; assay: Dead quenching: dead gate intensity divided by live gate intensity, flow cytometry of stained bovine sperm; assay type: cell-based; details: for Dead Intensity (dead gate intensity divided by live gate intensity): Ex 5
# How it was run: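 Bovine sperm stained with Hoechst 33342 (48–64 μM effective) in pH 7.4 TALP at 34° C for 60 min, then mixed 1:1 with pH 5.60 TALP containing quenching dye and held ~30 min at room temperature. Read on a MoFlo SX sorter; value is dead gate intensity divided by live gate intensity as a percentage, lower meaning more quenching.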
# deer sperm = assay: Post thaw motility of bulk sorted deer sperm (Example 3); assay type: cell-based; details: 0 HR; RED TALP with 16 μL, Y6 with 14 μL Hoechst 33342
# Method: (§1) Each of deer and elk were collected in the Tris-egg yolk catch fluid described as a catch media in Example 1, and shipped for sorting.
# (§2) A portion of each of the deer and the elk were stained by the red food dye No. 40 treatment 40% with 16 μL Hoechst 33342 and the yellow food dye No. 6 treatment with 14 μL Hoechst 33342 as described in Example 1.
# (§3) Samples were each bulk sorted with the same machine and parameters described in Example 1. Both sorted X and sorted Y sperm were collected into a single catch. The sorted samples were then frozen like those described in Example 1.
# (§4) Frozen thawed samples were then tested for post thaw motilities and post thaw DNA fragmentation. Post thaw motilities were slightly higher in Elk sorted with a yellow quencher, while a more significant difference existed in progressive motility. In Table 10, post thaw DNA fragmentation in Elk can be seen at about double after 48 hours when red food dye No. 40 is compared to yellow food dye No. 6 as a dead quencher.
# elk sperm [4] = assay: Post thaw motility of bulk sorted elk sperm (Example 3); assay type: cell-based; details: 0 HR; RED TALP with 16 μL, Y6 with 14 μL Hoechst 33342
# Method: as §1, §2, §3, §4
# elk sperm [5] = assay: Post thaw DNA fragmentation of elk sperm (Example 3); assay type: cell-based; details: unit assumed
# Method: as §1, §2, §3, §4
# [6] = dye 62.5 μM, Hoechst 12 μL/2 mL
# [7] = dye 62.5 μM, Hoechst 14 μL/2 mL
# [8] = dye 62.5 μM, Hoechst 16 μL/2 mL
# [9] = Ex 6, dye 62.5 μM, resulting pH 6.70, Hoechst 48 μM
compound,measurement,setting,value
"O=S(=O)([O-])c1ccc(N=Nc2c(O)ccc3cc(S(=O)(=O)[O-])ccc23)cc1.[Na+].[Na+] [Yellow 6, Disodium 6-hydroxy-5-[(4-sulfophenyl)azo]-2-naphthalenesulfononate]",Expected Absorption Maxima,[1],480 nm
same,Height of Peak/Height of Valley,"[2]; dye 25 μM, Average of 12 and 14 μL series",2.06
same,Height of Peak/Height of Valley,"[2]; dye 25 μM, Hoechst 12 μL/2 mL",2.05
same,Height of Peak/Height of Valley,"[2]; dye 25 μM, Hoechst 14 μL/2 mL",2.07
same,Height of Peak/Height of Valley,"[2]; dye 25 μM, Hoechst 16 μL/2 mL",1.13
same,Height of Peak/Height of Valley,"[2]; dye 62.5 μM, Average of 12 and 14 μL series",1.66
same,Height of Peak/Height of Valley,[2]; [6],1.70
same,Height of Peak/Height of Valley,[2]; [7],1.62
same,Height of Peak/Height of Valley,[2]; [8],1.00
same,Height of Peak/Height of Valley,"[2]; dye 125 μM, Average of 12 and 14 μL series",1.77
same,Height of Peak/Height of Valley,"[2]; dye 125 μM, Hoechst 12 μL/2 mL",1.73
same,Height of Peak/Height of Valley,"[2]; dye 125 μM, Hoechst 14 μL/2 mL",1.80
same,Height of Peak/Height of Valley,"[2]; dye 125 μM, Hoechst 16 μL/2 mL",1.26
same,PV,[2]; [9],1.00
same,Height of Peak Divided by Height of Valley,[2]; cells 100 million per mL,1.26
same,Height of Peak Divided by Height of Valley,[2]; cells 150 million per mL,1.30
same,Height of Peak Divided by Height of Valley,[2]; cells 250 million per mL,1.25
same,Height of Peak Divided by Height of Valley,[2]; cells 300 million per mL,1.23
same,PV,"[2]; Ex 8, Bull 1, Hoechst 44 μM, Y6 50 μM alone",1.20
same,PV,"[2]; Ex 8, Bull 1, Hoechst 60 μM, Y6 50 μM alone",1.39
same,PV,"[2]; Ex 8, Bull 2, Hoechst 28 μM, Y6 50 μM alone",1.64
same,PV,"[2]; Ex 8, Bull 2, Hoechst 44 μM, Y6 50 μM alone",1.35
same,PV,"[2]; Ex 8, Bull 2, Hoechst 60 μM, Y6 50 μM alone",1.35
same,PV,"[2]; Ex 8, Bull 2, Hoechst 60 μM, Y6 375 μM alone",1.72
same,PV,"[2]; Ex 9, Bull 3, Hoechst 60 μM, Y6 50 μM, R3 0 μM, first Y6 series",1.26
same,PV,"[2]; Ex 9, Bull 3, Hoechst 60 μM, Y6 50 μM, R3 0 μM, second Y6 series",1.32
same,Dead Intensity (dead gate intensity divided by live gate intensity),"[3]; dye 25 μM, Average of Hoechst levels",71%
same,Dead Intensity (dead gate intensity divided by live gate intensity),"[3]; dye 25 μM, Hoechst 12 μL/2 mL",68%
same,Dead Intensity (dead gate intensity divided by live gate intensity),"[3]; dye 25 μM, Hoechst 14 μL/2 mL",74%
same,Dead Intensity (dead gate intensity divided by live gate intensity),"[3]; dye 25 μM, Hoechst 16 μL/2 mL",70%
same,Dead Intensity (dead gate intensity divided by live gate intensity),"[3]; dye 62.5 μM, Average of Hoechst levels",51%
same,Dead Intensity (dead gate intensity divided by live gate intensity),[3]; [6],50%
same,Dead Intensity (dead gate intensity divided by live gate intensity),[3]; [7],52%
same,Dead Intensity (dead gate intensity divided by live gate intensity),[3]; [8],52%
same,Dead Intensity (dead gate intensity divided by live gate intensity),"[3]; dye 125 μM, Average of Hoechst levels",39%
same,Dead Intensity (dead gate intensity divided by live gate intensity),"[3]; dye 125 μM, Hoechst 12 μL/2 mL",37%
same,Dead Intensity (dead gate intensity divided by live gate intensity),"[3]; dye 125 μM, Hoechst 14 μL/2 mL",40%
same,Dead Intensity (dead gate intensity divided by live gate intensity),"[3]; dye 125 μM, Hoechst 16 μL/2 mL",40%
same,Intensity (dead gate),[3]; [9],50%
same,quenching of the dead population compared to red food dye No. 40 (FIG. 3),"[3]; three bulls, equal amounts of Hoechst 33342 and of dye",superior quenching
same,"Post Thaw Motility Deer, Motile",deer sperm,67.5
same,"Post Thaw Motility Deer, Progressive",deer sperm,53.2
same,"Post Thaw Motility Elk, Motile",elk sperm [4],55.5
same,"Post Thaw Motility Elk, Progressive",elk sperm [4],38.0
same,"Post Thaw DNA fragmentation Elk, Post Sort",elk sperm [5]; 0 HR,0%
same,"Post Thaw DNA fragmentation Elk, Pre-sort",elk sperm [5]; 0 HR,2.3%
same,"Post Thaw DNA fragmentation Elk, Post Sort",elk sperm [5]; 24 HR,0%
same,"Post Thaw DNA fragmentation Elk, Pre-sort",elk sperm [5]; 24 HR,3.3%
same,"Post Thaw DNA fragmentation Elk, Post Sort",elk sperm [5]; 48 HR,0.3%
same,"Post Thaw DNA fragmentation Elk, Pre-sort",elk sperm [5]; 48 HR,3.7%

# — patent US9140688B2, “Sperm staining and sorting methods” (INGURAN, LLC, priority 2011, dated 2015)
